pIC50: −log10 of the molar value. Entries after “also recorded” stand apart in the source; their conditions may differ.
How the values were obtained:
[1] = target: T1, LMO2-iDAb LMO2dm3 interaction (Homo sapiens, UniProt P25791); assay: LMO2-iDAb LMO2dm3 BRET assay; format: cell-based; conditions: BRET dose response, HEK293T cells, 0.01-50 μM, 22 h
T1 construct: LMO2 cDNA was cloned into the pEF-RLuc8-MCS and pEF-MCS-RLuc8 plasmids; expressed in transfected cells; host or cells: HEK293T
T1 sequence (P25791 1-158): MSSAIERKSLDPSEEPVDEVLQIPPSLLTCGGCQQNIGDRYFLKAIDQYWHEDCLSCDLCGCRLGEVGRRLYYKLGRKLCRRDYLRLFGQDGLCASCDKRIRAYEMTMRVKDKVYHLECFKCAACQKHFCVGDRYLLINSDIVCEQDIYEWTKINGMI
Description: (§1) For all BRET experiments (titration curves and competition assays) 650,000 HEK293T were seeded in each well of a 6 well plates. After 24 hours at 37° C., cells were transfected with a total of 1.6 μg of DNA mix, containing the donor+acceptor±competitor plasmids, using Lipofectamine 2000 transfection reagent (Thermo-Fisher). In dose response competition experiments, competitors were transfected with the following amount of DNA: 0.1; 0.5 and 1 μg. In single dose competition experiments, competitors were transfected with […] of DNA. Cells were detached 24 hours later, washed with PBS and seeded in a white 96-well plate (clear bottom, PerkinElmer, Cat #6005181) in OptiMEM no phenol red medium complemented with 4% FBS and cells were incubated for an additional 20-24 hours at 37° C. before the BRET assay reading. A detailed BRET protocol is provided by Bery and Rabbitts, (2019).
Compounds were prepared in 100% DMSO at 10 mM. For BRET competition assays, cells were treated with the indicated compounds at concentration of 1 (or 5), 10 and 20 μM for 22 h. For BRET-based dose response experiments, cells were treated with compounds at concentration of 0.01, 0.1, 1, 4, 10, 25 and 50 μM for 22 h. The compounds were diluted in the BRET medium: OptiMEM no phenol red (Life Technologies) supplemented with 4% FBS and with a final concentration of 0.2% DMSO.
(§2) BRET2 signal was determined immediately after injection of coelenterazine 400a substrate (10 μM final) to cells (Cayman Chemicals), using a CLARIOstar instrument (BMG Labtech) with a luminescence module. Total GFP^2 fluorescence was detected with excitation and emission peaks set at 405 nm and 515 nm respectively. Total RLuc8 luminescence was measured with the Luminescence 400-700 nm-wavelength filter.
The BRET signal or BRET ratio corresponds to the light emitted by the GFP^2 acceptor constructs (515 nm±30) upon addition of coelenterazine 400a divided by the light emitted by the RLuc8 donor constructs (410 nm±80). The background signal is subtracted from that BRET ratio using the donor-only negative control where only the RLuc8 fusion plasmid is transfected into the cells. The normalized BRET ratio is the BRET ratio normalized to a negative control (iDAb control or DMSO control) during a competition assay. Total GFP^2 and RLuc8 signals were used to control the protein expression from each plasmid.

[2] = target: T2, LMO2-iDAb LMO2 (unmutated iDAb) interaction (Homo sapiens, UniProt P25791); assay: LMO2-iDAb LMO2 (unmutated iDAb) BRET assay; format: cell-based; conditions: BRET dose response
T2 construct: LMO2 cDNA was cloned into the pEF-RLuc8-MCS and pEF-MCS-RLuc8 plasmids; expressed in transfected cells; host or cells: HEK293T
T2 sequence (P25791 1-158): T1 sequence (P25791 1-158)
Description: as §1
Compounds were prepared in 100% DMSO at 10 mM. […]
as §2, with “filter. […]” for “filter.”

scFv-LMO2 = target: T3, scFv-LMO2 (Homo sapiens, UniProt P25791); assay: Photoaffinity labelling (PAL) pulldown; format: binding; conditions: 20 μM Abd-L26, UV light, avidin beads
T3 construct: made in house; host or cells: E. coli C41 (DE3)
T3 sequence (P25791 1-158): T1 sequence (P25791 1-158)
Description: 20 μM of Abd-L26 with or without 100 μM of Abd-L9 (competitor) are added in a final volume of 400 μL of PBS with 40 μg of purified protein of interest (scFv-LMO2). The same samples are prepared for the no UV controls. The samples are incubated for 25 minutes at RT. The samples to be crosslinked are put into ice and under the UV lamp for crosslinking for 1 hour. The no UV controls are kept on ice. During the 1 hour of crosslinking, the agarose monomeric avidin beads (Cat #20228, Thermofisher) are washed twice with PBS. After the crosslink, 20 μL of washed beads are added in all the samples (crosslinked and non-crosslinked) and incubated for 2 hours at 4° C. on a roller. 2 hours later, wash the beads three times with 400 μL of PBS. The samples are finally denatured with 50 μL of 2× loading buffer with BME added directly on the beads (and boiled at 100° C. for 5 minutes) and loaded for a western blot analysis.

SMILES	pIC50 [1]	concentration at which LMO2-iDAb LMO2 interaction is inhibited [2]	photo-crosslinking to LMO2 protein (pulldown, Western blot) (scFv-LMO2)
COc1cccc(CN2CCN(c3nc(C(=O)Nc4ccc(OC)nc4)cs3)CC2)c1 [Abd-L22, 2-(4-(3-methoxybenzyl)piperazin-1-yl)-N-(6-methoxypyridin-3-yl)thiazole-4-carboxamide]	5.17	above 25 μM	
O=C(CCCC[C@H]1SC[C@H]2NC(=O)N[C@H]21)NCCOCCOCC(=O)Nc1ccc(NC(=O)c2coc(N3CCN(Cc4ccc(C(=O)c5ccccc5)cc4)CC3)n2)cc1 [Abd-L26, 2-(4-(4-benzoylbenzyl)piperazin-1-yl)-N-(4-(2-(2-(2-(5-((3aR,4R,6aS)-2-oxohexahydro-1H-thieno[3,4-d]imidazol-4-yl)pentanamido)ethoxy)ethoxy)acetamido)phenyl)oxazole-4-carboxamide]			observed a biotin labelled protein; also recorded: confirmed binding to LMO2 protein
